Key:
T-cell [1] = assay: IL-2 secretion from T-cells co-stimulated with anti-CD3 and anti-CD28 antibody (Biological Example 2); assay type: cell-based, human; conditions: Homo sapiens, T-cell, fold change over baseline, primary human total T-cells, read-out: IL-2 secretion Anti-CD3/Anti-CD28 stimulation; for fold induction at 0.3 µM: 0.3 μM Cbl-b inhibitor; for fold induction at 1 µM: 1 μM Cbl-b inhibitor; for fold induction at 4 µM: 4 μM Cbl-b inhibitor
Summary of the method: (§1)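 Values are fold-change over baseline: readings (IL-2 release, CD25 staining) from inhibitor-treated T-cells divided against untreated cells […]. No detailed procedure stated.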

T-cell [2] = assay: CD25 cell surface staining on T-cells co-stimulated with anti-CD3 and anti-CD28 antibody (Biological Example 2); assay type: cell-based, human; conditions: Homo sapiens, T-cell, fold change over baseline, primary human total T-cells, read-out: CD25 staining Anti-CD3/Anti-CD28 stimulation; for fold induction at 0.3 µM: 0.3 μM Cbl-b inhibitor; for fold induction at 1 µM: 1 μM Cbl-b inhibitor; for fold induction at 4 µM: 4 μM Cbl-b inhibitor
Summary of the method: as §1

T-cell [3] = assay: CD25 cell surface staining on T-cells stimulated with anti-CD3 antibody alone (Biological Example 2); assay type: cell-based, human; conditions: T-cell, fold change over baseline, primary human total T-cells, read-out: CD25 staining Anti-CD3 stimulation; for fold induction at 1 µM: 1 μM Cbl-b inhibitor; for fold induction at 8 µM: 8 μM Cbl-b inhibitor
[4] = tested on: human T-cells with allogenic immature dendritic cells; assay: Allogenic mixed lymphocyte reaction (MLR), T-cell proliferation; assay type: cell-based; conditions: 120 h, 5 days, baseline T-cells without Cbl-b inhibitor, read-out: Proliferation, fold change over baseline
Summary of the method: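 CFSE-labelled primary human T-cells, preincubated with Cbl-b inhibitor, stimulated by allogenic immature dendritic cells derived from monocytes with GM-CSF (30 ng/mL) and IL-4 (20 ng/mL) over 7 days. Proliferation by flow cytometry, expressed as fold over inhibitor-free baseline; >2-fold counted positive.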

| SMILES | fold induction at 0.3 µM (T-cell [1]) | fold induction at 1 µM (T-cell [1]) | fold induction at 4 µM (T-cell [1]) | fold induction at 0.3 µM (T-cell [2]) | fold induction at 1 µM (T-cell [2]) | fold induction at 4 µM (T-cell [2]) | fold induction at 1 µM (T-cell [3]) | fold induction at 8 µM (T-cell [3]) | fold induction at 3 µM [4] | fold induction at 10 µM [4] |
| --- | --- | --- | --- | --- | --- | --- | --- | --- | --- | --- |
| Cn1cnnc1[C@@H]1C[C@@H]1c1cccc(N2Cc3c(cccc3C(F)(F)F)C2=O)c1 [Compound 282, 2-(3-((1S,2R)-2-(4-methyl-4H-1,2,4-triazol-3-yl)cyclopropyl)phenyl)-4-(trifluoromethyl)isoindolin-1-one] | < 1 | 1.01 to 2.5 | 2.51 to 5 | > 1.76 | > 1.76 | > 1.76 | 0.601 to 0.8 | > 1 | < 2 | < 2 |
| C[C@H](Cc1nncn1C)c1ccnc(NC(=O)c2cccc(C(F)(F)F)n2)c1 [Compound 302, (R)-N-(4-(1-(4-methyl-4H-1,2,4-triazol-3-yl)propan-2-yl)pyridin-2-yl)-6-(trifluoromethyl)picolinamide] | 2.51 to 5 | 2.51 to 5 | > 7.5 | 1.01 to 1.3 | 1.01 to 1.3 | 1.01 to 1.3 | < 0.6 | 0.801 to 1 | < 2 | < 2 |
| C[C@H](Cc1nncn1C)c1cccc(NC(=O)c2nc(C(F)(F)F)c[nH]2)c1 [Compound 326, (R)-N-(3-(1-(4-methyl-4H-1,2,4-triazol-3-yl)propan-2-yl)phenyl)-4-(trifluoromethyl)-1H-imidazole-2-carboxamide] | 1.01 to 2.5 | 2.51 to 5 | 2.51 to 5 | 1.01 to 1.3 | 1.01 to 1.3 | 1.01 to 1.3 | 0.801 to 1 | > 1 | < 2 | < 2 |

— patent US20220324835A1 (Nurix Therapeutics, Inc., priority 2018, published 2022)
